Source: the METLIN SMRT retention time set (Domingo-Almenara et al. 2019)

Experiment: gradient 5% acetonitrile 3 min, to 50% in 2 min, to 85% in 15 min, held 3 min, 100 µL/min
Settings: column: Zorbax Extend-C18 2.1 x 50 mm; eluents: water / acetonitrile, 0.1% formic acid
Procedure, shortened: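 Values are retention times taken from adduct peaks that software picked and an analyst inspected. The pure standards were run as mixtures of ~100 molecules on HPLC linked to a quadrupole time-of-flight mass spectrometer, in positive and negative ionization mode. A Zorbax Extend-C18 column (2.1 × 50 mm, 1.8 μm) was used at 100 μL/min with water and acetonitrile, each including 0.1% formic acid.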

Compound	RP-LC retention time
O=C(C1CCCN(c2ncc(-c3ccc(F)cc3)cn2)C1)N1CCCC1 (stereo not drawn)	863 s
CN1CCN(Cc2nn(C)c3c2CN(S(=O)(=O)c2ccccc2Cl)CC3)CC1	615 s
Cc1ccc(Cn2c(=O)c(N3CCN(C(=O)NC(C)C)CC3)nc3ccccc32)cc1	981 s
Cc1ccc(NC(=O)N(C)CCc2noc(COc3ccccc3F)n2)c(C)c1	922 s
Cc1cc(S(=O)(=O)N2CCCC2c2nc(-c3cccc(Cl)c3)no2)ccc1F (stereo not drawn)	1240 s
O=C(Cc1cccs1)Nc1onc2c1CCCC2	730 s
Cc1noc(C)c1-c1ccc(S(=O)(=O)NCc2cccs2)cc1	869 s
CC(=O)N1CCc2cc(-c3ccc(C(=O)NCCc4cccs4)cc3)ccc21	843 s
Cc1ccc(-c2ccc(N3CCCC(C(=O)NCC4CCCO4)C3)nn2)cc1C (stereo not drawn)	663 s
CC(=O)Nc1ccc(C(=O)NCCNC(=O)Nc2cccs2)cc1	600 s
O=C(NCc1ccco1)C1CCN(C(=O)c2ncn3c2COC(c2ccccc2)C3)CC1 (stereo not drawn)	699 s
CCOc1ccc(N2CC(NC(=O)Nc3ccc(OC(F)F)cc3)CC2=O)cc1 (stereo not drawn)	754 s
CC(C)(C)c1csc(NC(=O)C2CC(=O)N(c3n[nH]c4cccc(F)c34)C2)n1 (stereo not drawn)	838 s
CS(=O)(=O)Nc1ccc(C2(C(=O)NCc3cccc(Cl)c3)CCCCC2)cc1	948 s
O=C(CSc1cc(N2CCCCC2)ncn1)Nc1cccc(Br)c1	1050 s
CCOC(=O)c1coc(NC(=O)Nc2cccs2)n1	706 s
O=C(c1ccc(Cl)cc1)N1CCC(N(C(=O)C2CC2)C2CCOCC2)CC1	775 s
CCc1nnc(NC(=O)CN2C(=O)C3CCCCN3c3ccc(S(=O)(=O)N(C)C)cc32)s1 (stereo not drawn)	800 s
CCNC(=O)c1n[nH]c2c1CC(C(C)(C)C)CC2 (stereo not drawn)	840 s
Cc1ccc(-c2nnc(-c3nc(N4CCN(c5ccccn5)CC4)c4ccccc4n3)o2)cc1	676 s
O=C1COc2ccc(-c3csc(NC(=O)C4CCCCC4)n3)cc2N1	884 s
O=C(Cn1cnc2nc(N3CCC(C(=O)NC4CC4)CC3)sc2c1=O)Nc1ccccc1	650 s
COc1ccccc1N1CCN(CCCNc2c(C)c(=O)n(C)c(=O)n2C)CC1	646 s

Compound	RP-LC retention time
Cn1c(=O)n(C)c2cc(Oc3ccccc3)c(NS(=O)(=O)c3ccc(F)cc3)cc21	868 s
COc1ccc(C(=O)Nc2cccn3nc(C(C)C)nc23)cc1	873 s
COC(=O)C1=C(N)OC2=C(C(=O)CC(C)(C)C2)C1c1cccs1 (stereo not drawn)	821 s
CCOc1ccccc1OCC(=O)c1ccc(O)cc1O	794 s
O=C(Nc1ccccc1)C1CC(=O)N(CCc2c[nH]c3ccc(F)cc23)C1 (stereo not drawn)	796 s
COc1cccc(-n2ccc(=O)c(-c3nc(-c4ccc(F)cc4)no3)n2)c1	898 s
O=C(CC1CCN(C(=O)C2CCCCC2)CC1)NCc1ccccn1	596 s
COC(=O)c1c(NCCc2c[nH]c3ccccc23)c2cc(Cl)ccc2[nH]c1=O	809 s
CC1(CNC(=O)COc2ccc(F)cc2)CCOCC1	750 s
Cc1nnc2ccc(S(=O)(=O)N(Cc3ccccc3)c3ccc(F)cc3)cn12	870 s
Cc1ccc(Nc2c(-c3ccc(Cl)cc3)nc3cnccn23)cc1Cl	1150 s
COc1ccccc1C(=O)N1CCc2ccccc2[C@H]1C	893 s
COC(=O)c1cc(Cl)ccc1NC(=O)COc1nc(C)nc2ccccc12	897 s
Cc1ccc2c(Nc3cccc(C(C)C)c3)c(C(=O)N3CCSCC3)cnc2n1	688 s
CCn1cc(CCN2CCN(S(=O)(=O)c3ccc(C#N)cc3)CC2)c2cccnc21	634 s
CCn1cc(-c2nc(CC(=O)Nc3ccc(F)cc3Cl)cs2)c2cccnc21	720 s
Cc1ccccc1-c1cc(N2CCN(C(=O)NCC3CCCO3)CC2)ncn1 (stereo not drawn)	600 s
O=C(CCNc1cnc2cnccn12)NCc1ccc2c(c1)OCO2	564 s
O=C(NCCN1CCc2ccccc2C1)c1cccc(N2CCNC(c3ccccc3)C2)n1 (stereo not drawn)	576 s
Cc1ccc(F)cc1NC(=O)Cn1nc(N2CCCCCC2)c2ccccc2c1=O	1140 s
CC(C)CCC(=O)N1CCc2nc(N3CCN(C)CC3)sc2C1	609 s
CCc1noc([C@@H]2CC(F)(F)CN2C(=O)c2coc(C)n2)n1	732 s
CN1C(=O)Cc2ccccc2C1C(=O)N1CCN(c2ccc(Cl)cc2)CC1 (stereo not drawn)	854 s

Compound	RP-LC retention time
Cc1nn(CCC(=O)NCCC2=CCCCC2)c(=O)c2nn(-c3ccccc3)c(C)c12	867 s
Cc1ccc(-n2ccn3cc(-c4ccc(F)cc4F)nc3c2=O)cc1Cl	1000 s
COc1ccc2c(c1)C1(CCN(S(=O)(=O)c3cccs3)C1)C(=O)N2C (stereo not drawn)	871 s
COCc1c(C(=O)O)nnn1-c1cccc(Br)c1	729 s
Cc1cc(Cl)ccc1NC(=O)C1CCN(S(C)(=O)=O)c2ccccc2O1 (stereo not drawn)	882 s
Cc1cc(NC(=O)CSc2nncn2C)no1	554 s
Cc1ccc2cc(CCC(=O)NCCCN3CCOCC3)c(=O)[nH]c2c1	577 s
Cn1c(=O)n(C)c2cc(S(=O)(=O)C3CCCCC3)c(NC(=O)c3ccccc3)cc21	982 s
CC1=NS(=O)(=O)N(Cc2ccccc2)C=C1C(=O)OCc1noc(-c2cccc(F)c2)n1	1130 s
Cc1ccc(NS(=O)(=O)c2cc(-c3[nH]ncc3C(=O)N3CCCCC3)oc2C)cc1F	806 s
CN(C)c1ccc(-c2nc3cnccn3c2Nc2ccc3c(c2)OCO3)cc1	737 s
CC(C)c1cc(C(=O)NCc2ccc3c(c2)OCO3)nc2cc(-c3ccccn3)nn12	986 s
O=c1c2nnc3ccnn3c2ccn1CCc1c[nH]c2ccccc12	700 s
COCCOc1ccc2c(n1)CCN(C(=O)NC1CCCC1)C2	724 s
O=C(Cn1c2ccccc2c2ncn(Cc3nc(-c4ccccc4)no3)c(=O)c21)NC1CCCCC1	976 s
O=C(NCc1ccc2c(c1)OCO2)c1n[nH]nc1Nc1ccc(F)cc1	872 s
Cc1ccc(S(=O)(=O)NC2CCN(C(=O)C3CCC3)CC2)cc1	761 s
CCOc1ccccc1NC(=O)N1CCC(n2c(C(F)(F)F)nc3cccnc32)CC1	976 s
CNC(=O)c1cc(C)nc2c(C)cc(C)cc12	568 s
O=C(c1cn(-c2cc(-c3nc(C4CC4)no3)ccn2)cn1)N1CCSCC1	833 s
Cc1noc(CNC(=O)C2CCN(C(=O)c3ccc(S(=O)(=O)N(C)C)cc3)CC2)n1	618 s
Cc1cccc2sc(N(CCCN(C)C)C(=O)c3ccccc3Br)nc12	629 s
